Several values for one entry are separate records, joined by “and”; a condition that tells them apart may be missing. Equal values may be shown once. Toxic doses and inconclusive results are not listed.
Tested on: BDF1 mice, P388 leukemia ip, median survival T/C
Assay: NCI In Vivo Anticancer Drug Screen. Data for tumor model P388 Leukemia (intraperitoneal) in B6D2F1 (BDF1) mice
Conditions: endpoint: median survival time, higher = longer survival
Procedure, shortened: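 Each value expresses how treatment altered survival: treated-mouse outcome over vehicle-mouse outcome, both groups bearing the transplanted tumour.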

[1] = dose: 50.0 mg/kg/injection, schedule: Q01DX009 (ip), vehicle: saline with Tween-80
[2] = dose: 100.0 mg/kg/injection, schedule: Q01DX009 (ip), vehicle: saline with Tween-80
[3] = dose: 2.5 mg/kg/injection, schedule: Q01DX009 (ip), vehicle: saline
[4] = dose: 5.0 mg/kg/injection, schedule: Q01DX009 (ip), vehicle: saline
[5] = dose: 10.0 mg/kg/injection, schedule: Q01DX009 (ip), vehicle: saline
[6] = dose: 20.0 mg/kg/injection, schedule: Q01DX009 (ip), vehicle: saline
[7] = dose: 12.5 mg/kg/injection, schedule: Q01DX009 (ip), vehicle: saline
[8] = dose: 25.0 mg/kg/injection, schedule: Q01DX009 (ip), vehicle: saline
[9] = dose: 100.0 mg/kg/injection, schedule: Q01DX009 (ip), vehicle: saline
[10] = dose: 200.0 mg/kg/injection, schedule: Q01DX009 (ip), vehicle: saline
[11] = dose: 100.0 mg/kg/injection, schedule: Q04DX003 (ip), vehicle: Klucel (hydroxypropylcellulose) (HPC)
[12] = dose: 200.0 mg/kg/injection, schedule: Q04DX003 (ip), vehicle: Klucel (hydroxypropylcellulose) (HPC)
[13] = dose: 50.0 mg/kg/injection, schedule: Q01DX009 (ip), vehicle: saline
[14] = dose: 3.13 mg/kg/injection, schedule: Q01DX009 (ip), vehicle: saline
[15] = dose: 6.25 mg/kg/injection, schedule: Q01DX009 (ip), vehicle: saline
[16] = dose: 200.0 mg/kg/injection, schedule: Q01DX009 (ip), vehicle: saline with Tween-80
[17] = dose: 400.0 mg/kg/injection, schedule: Q01DX009 (ip), vehicle: saline with Tween-80
[18] = dose: 400.0 mg/kg/injection, schedule: Q04DX003 (ip), vehicle: Klucel (hydroxypropylcellulose) (HPC)

CC1CC2OC(=O)C3=C2C(CCC3)C12CC(c1ccoc1)OC2=O (stereo not given)
T/C (dose: 25.0 mg/kg/injection, schedule: Q01DX001 (ip), vehicle: saline with Tween-80): 111 % of control
T/C (dose: 50.0 mg/kg/injection, schedule: Q01DX001 (ip), vehicle: saline with Tween-80): 106 % of control
T/C (dose: 100.0 mg/kg/injection, schedule: Q01DX001 (ip), vehicle: saline with Tween-80): 106 % of control
T/C (dose: 200.0 mg/kg/injection, schedule: Q01DX001 (ip), vehicle: saline with Tween-80): 116 % of control

CC(C(O)c1ccc(Br)cc1)C(O)(C(F)(F)F)C(F)(F)F (stereo not given)
T/C (dose: 100.0 mg/kg/injection, schedule: Q04DX003 (ip), vehicle: other): 100 % of control
T/C (dose: 200.0 mg/kg/injection, schedule: Q04DX003 (ip), vehicle: other): 100 % of control
T/C (dose: 400.0 mg/kg/injection, schedule: Q04DX003 (ip), vehicle: other): 100 % of control

Cc1cccc2nc(Oc3ccccc3)nc(=O)n12
T/C [1]: 96 % of control
T/C [2]: 99 % of control

O=C(O)c1ccc(C(Cl)(Cl)Cl)cc1
T/C (dose: 18.75 mg/kg/injection, schedule: Q01DX009 (ip), vehicle: Klucel (hydroxypropylcellulose) (HPC)): 95 % of control
T/C (dose: 33.0 mg/kg/injection, schedule: Q01DX009 (ip), vehicle: saline with Tween-80): 116 % of control
T/C [1]: 112 % of control
T/C (dose: 75.0 mg/kg/injection, schedule: Q01DX009 (ip), vehicle: saline with Tween-80): 108 % of control
T/C (dose: 150.0 mg/kg/injection, schedule: Q01DX009 (ip), vehicle: saline with Tween-80): 123 % of control

CC(=O)Nc1cc(F)c([N+](=O)[O-])cc1[N+](=O)[O-]
T/C (dose: 0.62 mg/kg/injection, schedule: Q01DX009 (ip), vehicle: saline): 115 % of control
T/C (dose: 1.25 mg/kg/injection, schedule: Q01DX009 (ip), vehicle: saline): 100 % of control
T/C (dose: 2.5 mg/kg/injection, schedule: Q01DX009 (ip), vehicle: Klucel (hydroxypropylcellulose) (HPC)): 105 % of control
T/C [3]: 300 % of control and 100 % of control
T/C (dose: 5.0 mg/kg/injection, schedule: Q01DX009 (ip), vehicle: Klucel (hydroxypropylcellulose) (HPC)): 115 % of control
T/C [4]: 300 % of control and 110 % of control
T/C (dose: 10.0 mg/kg/injection, schedule: Q01DX009 (ip), vehicle: Klucel (hydroxypropylcellulose) (HPC)): 100 % of control
T/C [5]: 300 % of control and 105 % of control
T/C (dose: 20.0 mg/kg/injection, schedule: Q01DX009 (ip), vehicle: Klucel (hydroxypropylcellulose) (HPC)): 110 % of control
T/C [6]: 95 % of control

Cc1ccc2scc3c4ccccc4nc-3c2c1
T/C [3]: 94 % of control
T/C [4]: 107 % of control
T/C [5]: 114 % of control
T/C [7]: 113 % of control and 124 % of control
T/C [6]: 94 % of control
T/C [8]: 113 % of control and 124 % of control
T/C (dose: 56.25 mg/kg/injection, schedule: Q04DX003 (ip), vehicle: saline): 104 % of control
T/C (dose: 75.0 mg/kg/injection, schedule: Q01DX009 (ip), vehicle: saline): 100 % of control and 104 % of control
T/C (dose: 112.5 mg/kg/injection, schedule: Q01DX009 (ip), vehicle: saline): 96 % of control
T/C (dose: 112.5 mg/kg/injection, schedule: Q04DX003 (ip), vehicle: saline): 113 % of control

CC(=O)c1ccc[n+](C)c1
T/C [9]: 100 % of control
T/C [10]: 95 % of control

CCCCCCCCCCCCCCCC(=O)OCC1OC(CO)(OC2OC(CO)C(O)C(O)C2O)C(O)C1O (stereo not given)
T/C [11]: 104 % of control
T/C [12]: 112 % of control

O=C1C=C(Cl)C(=O)C(Cl)=C1
T/C (dose: 3.0 mg/kg/injection, schedule: Q01DX009 (ip), vehicle: Klucel (hydroxypropylcellulose) (HPC)): 100 % of control
T/C (dose: 6.0 mg/kg/injection, schedule: Q01DX009 (ip), vehicle: Klucel (hydroxypropylcellulose) (HPC)): 87 % of control
T/C (dose: 6.25 mg/kg/injection, schedule: Q04DX003 (ip), vehicle: Klucel (hydroxypropylcellulose) (HPC)): 95 % of control
T/C (dose: 12.5 mg/kg/injection, schedule: Q04DX003 (ip), vehicle: Klucel (hydroxypropylcellulose) (HPC)): 100 % of control

ClCCOCCCl
T/C [1]: 115 % of control
T/C [2]: 124 % of control

CCN(CC)CCCC(C)NCCCN (stereo not given)
T/C [13]: 96 % of control
T/C [9]: 96 % of control
T/C [10]: 94 % of control

COc1cc(NCCCCCCCNC(C)C)c2nccc(C)c2c1
T/C [14]: 105 % of control
T/C [15]: 98 % of control and 115 % of control
T/C [8]: 109 % of control and 116 % of control

CCC(C)(OC(C)=O)C(=O)OC1C(=O)OC2CC3C(C)=CC(=O)C(O)C3(C)C3C(O)C(O)C4(C)OCC23C14 (stereo not given)
T/C (dose: 0.01 mg/kg/injection, schedule: Q01DX009 (ip), vehicle: saline + alcohol): 104 % of control
T/C (dose: 0.06 mg/kg/injection, schedule: Q01DX009 (ip), vehicle: saline + alcohol): 180 % of control
T/C (dose: 0.1 mg/kg/injection, schedule: Q01DX009 (ip), vehicle: saline + alcohol): 161 % of control
T/C (dose: 0.12 mg/kg/injection, schedule: Q01DX009 (ip), vehicle: saline + alcohol): 109 % of control
T/C (dose: 0.38 mg/kg/injection, schedule: Q01DX009 (ip), vehicle: saline + alcohol): 168 % of control
T/C (dose: 0.75 mg/kg/injection, schedule: Q01DX009 (ip), vehicle: saline + alcohol): 161 % of control
T/C (dose: 2.0 mg/kg/injection, schedule: Q01DX009 (ip), vehicle: saline + alcohol): 173 % of control
T/C (dose: 3.0 mg/kg/injection, schedule: Q01DX009 (ip), vehicle: saline + alcohol): 171 % of control

Cc1cccc(NC(=O)NCCOC(=O)OCCNC(=O)Nc2cccc(C)c2C)c1C
T/C [2]: 90 % of control
T/C [16]: 90 % of control
T/C [17]: 113 % of control

CCCCCCCCCCCCCCCCCC(N)=O
T/C [11]: 90 % of control
T/C [12]: 95 % of control
T/C [18]: 100 % of control

CCCCN(CCCC)CCC(O)c1cc(-c2ccc(Cl)c(Cl)c2)nc2c(Cl)cc(Cl)cc12 (stereo not given)
T/C [1]: 99 % of control
T/C [2]: 110 % of control

COc1cc([N+](=O)[O-])c(/C=C2/c3cc(OC)c(OC)cc3CCN2C)cc1Br
T/C (dose: 100.0 mg/kg/injection, schedule: Q01DX009 (ip), vehicle: Klucel (hydroxypropylcellulose) (HPC)): 109 % of control
T/C [11]: 100 % of control
T/C (dose: 200.0 mg/kg/injection, schedule: Q01DX009 (ip), vehicle: Klucel (hydroxypropylcellulose) (HPC)): 90 % of control
T/C [12]: 100 % of control
T/C (dose: 400.0 mg/kg/injection, schedule: Q01DX009 (ip), vehicle: Klucel (hydroxypropylcellulose) (HPC)): 104 % of control
T/C [18]: 100 % of control

COC(CN(C)CC(OC)OC)OC
T/C [9]: 90 % of control
T/C [10]: 100 % of control
T/C (dose: 400.0 mg/kg/injection, schedule: Q01DX009 (ip), vehicle: saline): 100 % of control

CNC(CCc1ccccc1)C(=O)O (stereo not given)
T/C (dose: 50.0 mg/kg/injection, schedule: Q04DX003 (ip), vehicle: saline sonified): 95 % of control
T/C (dose: 100.0 mg/kg/injection, schedule: Q04DX003 (ip), vehicle: saline sonified): 91 % of control
T/C (dose: 200.0 mg/kg/injection, schedule: Q04DX003 (ip), vehicle: saline sonified): 91 % of control

COC(=O)C1C2CC[N+]3(CCCCC13)O2 (stereo not given)
T/C [14]: 100 % of control
T/C [15]: 100 % of control
T/C [7]: 93 % of control and 109 % of control
T/C [13]: 105 % of control

CCCNc1ncnc2c1cnn2C
T/C [7]: 88 % of control
T/C [8]: 112 % of control
T/C [13]: 108 % of control
T/C (dose: 100.0 mg/kg/injection, schedule: Q04DX003 (ip), vehicle: saline): 120 % of control
T/C (dose: 200.0 mg/kg/injection, schedule: Q04DX003 (ip), vehicle: saline): 120 % of control

CCN(CC)CC(C)Nc1ccc([N+](=O)[O-])c2sc3ccccc3c(=O)c12 (stereo not given)
T/C (dose: 100.0 mg/kg/injection, schedule: Q04DX003 (ip), vehicle: saline with Tween-80): 200 % of control
T/C (dose: 132.0 mg/kg/injection, schedule: Q04DX003 (ip), vehicle: saline with Tween-80): 209 % of control and 222 % of control
T/C (dose: 200.0 mg/kg/injection, schedule: Q04DX003 (ip), vehicle: saline with Tween-80): 272 % of control and 300 % of control and 195 % of control
T/C (dose: 300.0 mg/kg/injection, schedule: Q04DX003 (ip), vehicle: saline with Tween-80): 109 % of control and 118 % of control
T/C (dose: 400.0 mg/kg/injection, schedule: Q04DX003 (ip), vehicle: saline with Tween-80): 115 % of control

COC(=O)C1CC2C(CCC3C(C)(C(=O)OC)CCCC23C)C(=O)C1(O)C(C)C (stereo not given)
T/C [2]: 100 % of control
T/C [16]: 100 % of control
T/C [17]: 90 % of control

— PubChem BioAssay AID328 (DTP/NCI, 2004)
